From PubChem BioAssay AID2060894 (Molecular Pharmacology Branch, DTP, NCI, 2025)
Values joined by “and” are separate entries in the source; they are usually repeats but may differ in a detail not shown here. Equal entries are not always repeated.

Test system: K12877-001-R-J1-PDC complex spheroid viability
Test: Anticancer human tumor K12877-001-R-J1-PDC patient-derived lung adenocarcinoma cell line growth inhibition [RAS]
Conditions: for viability, T/C: stronger effect = lower value; active = viability on the fitted dose curve at most 10% of control; inactive = the rest
Excerpt: RAS pathway inhibitors in Combinations in Complex Spheroids
A high-throughput screen of multi-cell type tumor spheroids was designed to identify active combinations of RAS pathway inhibitors and targeted small molecules. Complex spheroids include a stromal component modeled by human endothelial cells (HUVEC) and fibroblasts modeled by human mesenchymal stem cells (MSCs). The concentration ranges selected for each drug and investigational agent were based upon clinically achievable concentrations if the clinical Cmax of the agent was known.
Compounds. The drugs and investigational agents: abemaciclib (NSC768073), cobimetinib (NSC768068), divarasib (GDC6063, NSC841802), docetaxel (NSC628503), GDC-1971 (RLY-1971, NSC841576), gemcitabine (NSC613327), inavolisib (NSC800729), ipatasertib (NSC767898), KB-0742 (NSC834161), MRTX-1133 (NSC836407), osimertinib (NSC779217), RMC-4630 (NSC839698), RMC-6236 (NSC851965), RMC-6291 (NSC852671), Ro-3306 (NSC812927), sapanisertib (NSC764658), SN-38 (NSC673596), staurosporine (NSC755774), SY5609 (NSC837396), and tovorafenib (DAY101, NSC766906), were obtained from the National Cancer Institute (NCI) Developmental Therapeutics Program Chemical Repository. The FDA-approved anticancer drug set is available from the NCI Developmental Therapeutics Program. […] The stock solutions were prepared in dimethyl sulfoxide (DMSO, Sigma-Aldrich, St. Louis, MO, cat. D2650) at 800-fold the tested concentration and stored at -70 degrees C prior to their use. All drugs and investigational agents were tested over a range starting from a high concentration at or near the clinical Cmax and decreasing in half-log increments. If the clinical Cmax for an agent had not been determined, the highest concentration tested was 10 microM.
Cell Culture. All cells were maintained in an incubator at 37 degrees C and 5% CO2 with 95% humidity. The PDC lines were cultured according to standard operating procedures established by the NCI PDMR. All PDCs were thawed and cultured in Matrigel-coated flasks prepared with a working solution of 1X Ham's F-12 nutrient mix, without supplementation (Invitrogen, Waltham, MA, cat. 11765054), 100 U/mL penicillin-streptomycin (Invitrogen, cat. 15140122), and 2.5% Matrigel (Corning Inc., Corning, NY, cat. 354248) for the first three passages. The 362531-283-R-J2-PDC and 782815-120-R-J1-PDC lines were cultured in 6C/Colon 1B media, which includes advanced DMEM/F-12 (Thermo Fisher Scientific, cat. 12634028), 10 mM HEPES (Thermo Fisher Scientific, cat. 15630080), 1X GlutaMAX supplement (Thermo Fisher Scientific, cat. 35050061), 0.1 mg/mL primocin (InvivoGen, San Diego, CA, cat. ant-pm-2), 10% defined fetal bovine serum, heat inactivated (HyClone Laboratories Inc., Logan, UT, cat. SH30070.03HI), 50% L-WRN conditioned media (ATCC, cat. CRL-3276), 1.25 mM N-Acetyl-L-cysteine (Sigma-Aldrich, cat. A9165), 10 mM nicotinamide (Sigma-Aldrich, cat. N0636), 1X B-27 supplement (Thermo Fisher Scientific, cat. 17504044), 1X N-2 supplement (Thermo Fisher Scientific, cat. 17502048), 50 ng/mL human EGF (Thermo Fisher Scientific, cat. PHG0311), and 10 microM Y-27632 dihydrochloride (Tocris Bioscience, cat. 1254). The K12877-001-R-J1-PDC line was cultured in 6I media, which includes all 6C/Colon 1B media plus 10 ng/mL human FGF-10 (PeproTech, cat. 100-26), 1 ng/mL human FGF-2 (PeproTech, cat. 100-18B), 1 µM prostaglandin E2 (Tocris Bioscience, cat. 2296), […] hydrocortisone (Sigma-Aldrich, cat. H4001), and […] bovine insulin (Sigma-Aldrich, cat. I6634). The K86415-001-R-J1-PDC line was cultured in 6D media, which includes all 6C/Colon 1B media components minus the L-WRN conditioned media. The 485176-168-R4-J1-PDC was cultured in PANC media, which includes all 6C/Colon 1B media plus 100 ng/mL human FGF-10 (PeproTech, cat. 100-26), 500 nM SB-431542 (Selleckchem, cat. S1067), and 10 nM gastrin (Tocris Bioscience, cat. 3006). […]

[1] = curve of first compound, second compound 0.0316 µM
[2] = curve of first compound, second compound 0.1 µM
[3] = curve of first compound, second compound 0.316 µM
[4] = curve of first compound, second compound 1 µM
[5] = second compound 0.0316 µM, first compound 0.000316 µM
[6] = second compound 0.0316 µM, first compound 0.001 µM
[7] = second compound 0.0316 µM, first compound 0.00316 µM
[8] = second compound 0.0316 µM, first compound 0.01 µM
[9] = second compound 0.0316 µM, first compound 0.0316 µM
[10] = second compound 0.0316 µM, first compound 0.1 µM
[11] = second compound 0.1 µM, first compound 0.000316 µM
[12] = second compound 0.1 µM, first compound 0.001 µM
[13] = second compound 0.1 µM, first compound 0.00316 µM
[14] = second compound 0.1 µM, first compound 0.01 µM
[15] = second compound 0.1 µM, first compound 0.0316 µM
[16] = second compound 0.1 µM, first compound 0.1 µM
[17] = second compound 0.316 µM, first compound 0.000316 µM
[18] = second compound 0.316 µM, first compound 0.001 µM
[19] = second compound 0.316 µM, first compound 0.00316 µM
[20] = second compound 0.316 µM, first compound 0.01 µM
[21] = second compound 0.316 µM, first compound 0.0316 µM
[22] = second compound 0.316 µM, first compound 0.1 µM
[23] = second compound 1 µM, first compound 0.000316 µM
[24] = second compound 1 µM, first compound 0.001 µM
[25] = second compound 1 µM, first compound 0.00316 µM
[26] = second compound 1 µM, first compound 0.01 µM
[27] = second compound 1 µM, first compound 0.0316 µM
[28] = second compound 1 µM, first compound 0.1 µM
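Also: spheroids exposed to agents for one week before readout.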

CC(C)n1nc(-c2ccc3oc(N)nc3c2)c2c(N)ncnc21 + C=CC(=O)N1CCN(c2nc(OCC3CCCN3C)nc3c(F)c(-c4nc(N)cc(C)c4C(F)(F)F)c(Cl)cc23)C(C)C1
0.0154 µM: IC50 [2]
0.0142 µM: IC50 [3]
0.0164 µM: IC50 [4]
inactive: viability, T/C (second compound 0.00316 µM, first compound 0.000316 µM) 97.8% | viability, T/C (second compound 0.00316 µM, first compound 0.001 µM) 98.3% | viability, T/C (second compound 0.00316 µM, first compound 0.00316 µM) 90.6% | viability, T/C (second compound 0.00316 µM, first compound 0.01 µM) 73.3% | viability, T/C (second compound 0.00316 µM, first compound 0.0316 µM) 34.9% | viability, T/C (second compound 0.00316 µM, first compound 0.1 µM) 17.7% | viability, T/C (second compound 0.01 µM, first compound 0.000316 µM) 88.9% | viability, T/C (second compound 0.01 µM, first compound 0.001 µM) 89.2% | viability, T/C (second compound 0.01 µM, first compound 0.00316 µM) 81.8% | viability, T/C (second compound 0.01 µM, first compound 0.01 µM) 79.3% | viability, T/C (second compound 0.01 µM, first compound 0.0316 µM) 32.1% | viability, T/C (second compound 0.01 µM, first compound 0.1 µM) 15.2% | viability, T/C [5] 83.8% | viability, T/C [6] 74.4% | viability, T/C [7] 78.4% | viability, T/C [8] 71.4% | viability, T/C [9] 27.1% | viability, T/C [10] 14.4% | viability, T/C [11] 75.6% | viability, T/C [12] 78.5% | viability, T/C [13] 73.9% | viability, T/C [14] 65.5% | viability, T/C [15] 24.7% | viability, T/C [16] 14.5% | viability, T/C [17] 82.9% | viability, T/C [18] 70% | viability, T/C [19] 70.9% | viability, T/C [20] 61.6% | viability, T/C [21] 25.5% | viability, T/C [22] 14.6% | viability, T/C [23] 72.6% | viability, T/C [24] 77.8% | viability, T/C [25] 84.1% | viability, T/C [26] 68.3% | viability, T/C [27] 25.2% | viability, T/C [28] 14.4%
0.0174 µM: IC50 [1]
0.0201 µM: IC50 (curve of first compound, second compound 0.00316 µM)
0.0204 µM: IC50 (curve of first compound, second compound 0.01 µM)

CC(C)n1nc(-c2ccc3oc(N)nc3c2)c2c(N)ncnc21 + C#Cc1c(F)ccc2cc(O)cc(-c3ncc4c(N5CC6CCC(C5)N6)nc(OCC56CCCN5CC(F)C6)nc4c3F)c12
inactive: viability, T/C [5] 105% | viability, T/C [6] 88.2% | viability, T/C [7] 83% | viability, T/C [8] 93.9% | viability, T/C [9] 39.8% | viability, T/C [10] 24.5% | viability, T/C [11] 99.2% | viability, T/C [12] 86.2% | viability, T/C [13] 82.4% | viability, T/C [14] 94.2% | viability, T/C [15] 42.7% | viability, T/C [16] 24% | viability, T/C [17] 97% | viability, T/C [18] 102% | viability, T/C [19] 88.1% | viability, T/C [20] 98.8% | viability, T/C [21] 42.5% | viability, T/C [22] 23.2% | viability, T/C [23] 101% | viability, T/C [24] 104% | viability, T/C [25] 91.7% | viability, T/C [26] 101% | viability, T/C [27] 44.1% | viability, T/C [28] 24% | viability, T/C (second compound 3.16 µM, first compound 0.000316 µM) 114% | viability, T/C (second compound 3.16 µM, first compound 0.001 µM) 93.3% | viability, T/C (second compound 3.16 µM, first compound 0.00316 µM) 91.7% | viability, T/C (second compound 3.16 µM, first compound 0.01 µM) 88.1% | viability, T/C (second compound 3.16 µM, first compound 0.0316 µM) 40.9% | viability, T/C (second compound 3.16 µM, first compound 0.1 µM) 24.1% | viability, T/C (second compound 10 µM, first compound 0.000316 µM) 101% | viability, T/C (second compound 10 µM, first compound 0.001 µM) 84.5% | viability, T/C (second compound 10 µM, first compound 0.00316 µM) 82.7% | viability, T/C (second compound 10 µM, first compound 0.01 µM) 79.5% | viability, T/C (second compound 10 µM, first compound 0.0316 µM) 42.6% | viability, T/C (second compound 10 µM, first compound 0.1 µM) 19.5%
0.0255 µM: IC50 (curve of first compound, second compound 3.16 µM)
0.027 µM: IC50 [3]
0.028 µM: IC50 [4]
0.0253 µM: IC50 [1]
0.0256 µM: IC50 (curve of first compound, second compound 10 µM)
0.0265 µM: IC50 [2]

NC1c2ccccc2OC12CCN(c1cnc3c(N4CCCc5ncccc54)n[nH]c3n1)CC2 (stereo not drawn)
> 10 µM and 3.82 µM: IC50 (curve of compound)
inactive: viability, T/C (compound 0.0316 µM) 100% [middle of 4 runs] | viability, T/C (compound 0.1 µM) 97.9% [middle of 4 runs] | viability, T/C (compound 10 µM) 51.5% [middle of 4 runs]
